# Results taken from patent US20150291597A1, “NOVEL ORALLY BIOAVAILABLE BREATHING CONTROL MODULATING COMPOUNDS, AND METHODS OF USING SAME” (Galleon Pharmaceuticals, Inc., priority 2012, published 2015).
# “Also recorded” adds a separate entry of the source. Structures can show the parent of a compound that is named as a salt.
# Columns and labels:
# [1] = Solubility of the hydrogen sulfate salt in solvents; type: physicochemical
# rat = assay: Minute volume and mean blood pressure in the rat upon oral dosing (plethysmography, telemetry); type: in vivo, Male Sprague Dawley rats; settings: 20 mg/kg PO
# Experimental: Compounds were administered orally to rat and evaluated for effects on ventilatory and cardiovascular parameters.
# Male Sprague Dawley rats (0.30-0.38 kg, n=4) were surgically implanted with ECG/blood pressure telemeters (Telemetry Research, Inc., Auckland, New Zweland) prior to data collection. The animals were acclimated to plethysmography chambers for a minimum period of 60 minutes. After this time, test compound (20 mg/kg, PO) or vehicle (0.9% saline) was administered by oral gavage. Respiratory and cardiovascular data were collected immediately thereafter for a period of 3 h using plethysmography (Buxco, Inc.) and telemetry (LabChart data acquisition software, AD instruments, Inc.). Each rat received test compound and vehicle during the course of the study and thus each animal served as its own control. Vehicle effects were subtracted from drug response (Drug-Veh) and the difference was reported as a mean percent (%) change over time±SE.
# [2] = test system: rats chronically treated with morphine; assay: Apnea, sleep architecture and ventilatory response in rats chronically treated with morphine; type: in vivo, Adult male lean Zucker rats; settings: 7 mg/kg PO, versus vehicle
# Experimental: The objective of this study was to quantify the effects of select compounds of this invention on apnea, ventilation and sleep structure in a rat model. The study consisted of two treatment conditions: (1) chronic morphine and test compound, such as Compound 5b administered orally (7 mg/kg, PO), and (2) chronic morphine and oral vehicle. Adult male lean Zucker rats were anesthetized for electroencephalogram (EEG) and electromyogram (EMG) telemeter implantation. At least 1 week was permitted post-surgery before animals were used further. Morphine sulfate was added to the drinking water of singly housed rats beginning with 0.1 mg/ml morphine and increasing the concentration in increments so that a final concentration of 0.6 mg/ml was achieved within 2 weeks. All respiratory measurements were made while animals were unrestrained in whole-body plethysmography chambers to permit animals to sleep and move freely. To avoid eliciting withdrawal, morphine water was continuously available during each plethysmography experiment. Minute volume and the number of central sleep apneas (CSA) were measured during all treatment conditions. A period of at least 1 to 1.5 h was permitted for animals to acclimate to the chamber before data collection began. The biopotential telemeters and their receivers were placed directly under the plethysmographic chambers and were used to continuously to capture EEG, EMG, and body temperature signals. Only data collected between the hours of 10 am to 4:30 pm were used in the final analysis to control for the effects of circadian rhythm on breathing.
# Compound 5b (7 mg/kg) or an equivalent volume of vehicle was administered via an oral gavage tube at 12 pm. Data collected between 10 am and 12 pm represented baseline (pre-drug) conditions. Data collected between 12 pm and 4:30 pm represented post-drug conditions. Analyses of the EEG and EMG waveforms for the purpose of staging sleep-wake behavior in rats as awake, NREM sleep, and REM sleep were based on previous sleep studies involving rodents. Central apneas were defined as a respiratory cycle period that was more than or equal to twice the average cycle period during baseline recordings, which is consistent with how others have defined central apneas in rodents. Percent time in each sleep-wake state, minute volume, and central sleep apnea counts were compared between treatment groups using a two-way ANOVA (factors: drug treatment and time). Breathing data during wakefulness was not analyzed because movement prevents measurement of accurate volumes when using whole-body plethysmography. When differences were detected with ANOVA, Student-Neuman-Keuls post hoc tests were run for all main effects and interactions. Differences were considered significant when p<0.05. Values are expressed as means±SE.
# carotid body = assay: Carotid sinus nerve transection (CSNTx) in urethane anesthetized rats, minute volume; type: in vivo, adult male Sprague Dawley rats
# Experimental: The objective of this study was to assess the role of carotid body sinus nerve activity on ventilation, as measured by minute volume, in rats treated with compounds of this invention, such as Compound 5b, versus a saline-treated group. Urethane anesthetized adult male Sprague Dawley rats and tracheal spirometry (pneumotachometry) techniques were used (Example 56). Vehicle (saline) and Compound 5b (0.1 and 0.3 mg/kg) were administered as IV boluses to 5 rats. The carotid sinus nerves were isolated in the neck and transected thereby denervating both carotid bodies. Vehicle and Compound 5b were re-administered IV. Animals were exposed to low inspired O2 (hypoxia) to confirm functionally complete nerve transections. The change in minute volume ΔVE (% of baseline above baseline) in response to saline/Compound 5b before and after carotid body denervation was measured.
# anesthetized rats = assay: Anesthetized rat spirometry screening assay (respiratory rate, tidal volume, minute volume; IV bolus); type: in vivo; settings: 0.3 mg/kg IV bolus
# Description: Anesthetized rats provide a quick method of screening compounds for respiratory and cardiovascular activity. In contrast to the conscious rat model, this model offers an experimental set up with less variation in the baseline cardiovascular and respiratory measures. Compounds screened in this assay may be examined in a conscious rat model.
# Rats were initially anesthetized with 3% isoflurane (inhaled) and femoral artery and vein cannulas were surgically inserted. Once cannulated, the rats were transitioned to urethane anesthesia (1.5 g/kg; i.v.) and a tracheal cut-down was performed. After placing the tracheal cannula, it was connected to a pneumotach to record respiratory airflow from which respiratory rate (RR), tidal volume (VT), and their product minute volume were derived. After the surgical preparation was complete, animals were allowed to stabilize for 30 minutes while respiratory rate, tidal volume, minute volume, blood pressure and heart rate were recorded continuously. Arterial blood gases (ABG) were obtained from arterial blood collected from the femoral artery. ABG measurements were taken before and 6 minutes after vehicle and each dose of compound administered. Compounds being screened were administered via bolus injections through the venous cannula followed by a saline flush (total time of administration is approximately 30 seconds), and the animal was monitored for at least 6 minutes for changes in cardiovascular efforts. Compounds were prepared in formulations identified to ensure optimal solubility. As such, vehicle controls were matched for the formulation of each compound tested. Dosing of the compound being screened was 0.1 and 0.3 mg/kg. The next dose was not administered until all cardiovascular and respiratory measures had returned to baseline levels. The positive control compounds used were N-[4,6-di-(n-propylamino)-[1,3,5]triazin-2-yl]-O,N-dimethyl-hydroxylamine or N-[2,6-di-(n-propylamino)-[1,3]pyrimidin-4-yl]-O,N-dimethyl-hydroxylamine, both administered at the end of each screening experiment (0.3 mg/kg dose) to validate the experiment and also to serve as a measure with which the compound being screened could be compared.
# Data were analyzed by collecting cardiovascular and respiratory data in 30 second averages (BINs). Data were plotted 2 minutes before challenge and then 6 minutes after challenge.
# FIGS. 2A-2F summarize the effects of individual compounds on peak minute ventilation (increase in VE), overall increase in 2 minute area under the curve (AUC) which is a cumulative measure of effect, along with compound stability (half-life) in rat and human microsomes.
# [3] = Solubility of cyanuric chloride in various solvents; type: physicochemical; settings: 10 g in 50 mL, sonicated 1 h
# Experimental: The solubility of cyanuric chloride was examined as a way to limit its reactivity and the formation of undesired by-products. Cyanuric chloride (10 g) was mixed with 50 mL of indicated solvent (Table 22) and sonicated for 1 h with occasional swirling. If solid material remained as a suspension, it was filtered off and weighed.
smiles,measurement,setting,value
C#CCNc1nc(N(C)OC)c2cc[nH]c2n1.Cl,melting point,,182 to 184 °C
C#CCN(OC)c1nc(NCCC)nc(NCCC)n1.Cl,melting point,,110 to 113 °C
C#CCON(C)c1nc(NCCC)nc(NCCC)n1.Cl,melting point,,105 to 107 °C
C#CCNc1nc(NCCC)nc(N(C)OCC#C)n1.Cl,melting point,,84 to 86 °C
C#CCNc1nc(NCCC)nc(N(C)OC)n1,melting point,,79 to 81 °C
C#CCNc1nc(NCCC)nc(N(C)OC)n1.O=C(O)/C=C\C(=O)O,melting point,,123 to 125 °C
C#CCNc1nc(NCCC)nc(N(C)OC)n1.O=C(O)CC(=O)O,melting point,,113 to 115 °C
C#CCNc1nc(NCCC)nc(N(C)OC)n1.O=C(O)/C=C/C(=O)O,melting point,,153 to 155 °C
C#CCNc1nc(NC2CCC2)nc(N(C)OC)n1.Cl,melting point,,105 to 107 °C
"C#CCNc1nc(NCCC)nc(N(C)OC)n1 [Compound 5b, O,N-Dimethyl-N-[4-(n-propylamino)-6-(prop-2-ynylamino)-[1,3,5]triazin-2-yl]-hydroxylamine hydrogen sulfate]",solubility in MeOH,[1]; MeOH,freely soluble
same,solubility in water,[1]; water,freely soluble
same,duration of the increase in minute ventilation,rat,120 min
same,increase in minute ventilation compared to baseline,rat,approximately 50%
same,effect on mean blood pressure,rat; during the period of increased ventilation,no significant effect
same,"central apneas during NREM sleep, percent change from baseline (pre-treatment)",[2],percent change (decrease) in apnea frequency was present
same,NREM minute volume (VE),[2]; hydrogen sulfate,no statistically significant effects; also recorded: trend for an initial increase in minute volume between 0 to 60 min post-dose; also recorded: no discernible effect
same,REM minute volume,[2]; hydrogen sulfate,no visible effects
same,frequency of central apneas during NREM sleep,[2]; hydrogen sulfate,decreased apnea frequency at 120 min and 150 min post-gavage compared to vehicle; also recorded: decreased apnea frequency during NREM sleep compared to vehicle and the pre-treatment (baseline) values; also recorded: significantly reduces
same,frequency of central apneas during REM sleep,[2]; hydrogen sulfate,did not visibly alter; also recorded: no visible effect; also recorded: does not reduce
same,minute volume prior to carotid body denervation,carotid body; 0.1 and 0.3 mg/kg IV bolus,dose-dependently increased minute volume
same,ventilatory response after carotid sinus nerve transection,carotid body; 0.1 and 0.3 mg/kg IV bolus,completely abolished the ventilatory response
same,ventilatory response after SHAM surgery,carotid body; IV bolus,no effect on the ventilatory response
"C#CCNc1nc(NC)nc(NCCC)n1.Cl [Compound 7a, N-Methyl-N′-n-propyl-N″-prop-2-ynyl-[1,3,5]triazine-2,4,6-triamine hydrochloride]",duration of the increase in minute ventilation,anesthetized rats,approximately 2 minutes
same,increase in minute ventilation above baseline values,anesthetized rats,up to 85%
same,increase in respiratory rate,anesthetized rats,up to 46%
same,increase in tidal volume,anesthetized rats,up to 27%
"C#CCNc1nc(NCCC)nc(N(Cc2ccc(F)cc2)OC)n1 [Compound 9a, N-(4-Fluorobenzyl)-O-methyl-N-[4-(n-propylamino)-6-(prop-2-ynylamino)-[[1,3,5]triazin-2-yl]-hydroxylamine hydrochloride]",duration of the increase in minute ventilation,anesthetized rats,approximately 2 minutes
same,increase in minute ventilation above baseline values,anesthetized rats,up to 110%
same,increase in respiratory rate,anesthetized rats,up to 24%
same,increase in tidal volume,anesthetized rats,up to 72%
"C#CCNc1nc(N)nc(N(C)OC)n1 [Compound 132, N-(4-Amino-6-prop-2-ynylamino-[1,3,5]triazin-2-yl)-O,N-dimethyl-hydroxylamine]",melting point,,172 to 174 °C
Clc1nc(Cl)nc(Cl)n1 [cyanuric chloride],Solubility of cyanuric chloride,"[3]; Acetone, 0 °C",partial crystallization
same,Solubility of cyanuric chloride,"[3]; Acetone, r.t.",soluble
same,Solubility of cyanuric chloride,"[3]; DMAc, 0 °C",soluble
same,Solubility of cyanuric chloride,"[3]; DMAc, r.t.",soluble
same,Solubility of cyanuric chloride,"[3]; DMF, 0 °C",decomposition
same,Solubility of cyanuric chloride,"[3]; DMF, r.t.",decomposition
same,Solubility of cyanuric chloride,"[3]; DMSO, 0 °C",decomposition
same,Solubility of cyanuric chloride,"[3]; DMSO, r.t.",decomposition
same,Solubility of cyanuric chloride,"[3]; Dioxane, 0 °C",soluble
same,Solubility of cyanuric chloride,"[3]; Dioxane, r.t.",soluble
same,Solubility of cyanuric chloride,"[3]; IPA, 0 °C",insoluble
same,Solubility of cyanuric chloride,"[3]; MeCN, 0 °C",insoluble
same,Solubility of cyanuric chloride,"[3]; MeCN, r.t.",150 µg/mL
same,Solubility of cyanuric chloride,"[3]; THF, 0 °C",soluble
same,Solubility of cyanuric chloride,"[3]; THF, r.t.",soluble
same,Solubility of cyanuric chloride,"[3]; Toluene, 0 °C",soluble
same,Solubility of cyanuric chloride,"[3]; Toluene, r.t.",soluble
